29 sequences from the supplement of paper PMC11208160 can be followed below.
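Further: IS621 bridge recombinase in Escherichia coli cells against a fixed T5 target plasmid.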

A short description of this data set: recombinant UMI read abundance after kanamycin selection (control-corrected) (log10(CPM+1)); higher = more efficient recombination; extreme values may be limits of the assay; sequences stand for … in AGTGCAGAGAAAATCGGCCAGTTTTCTCTGCCTGCAGTCCGCATGCCGTGGGACCCCTTGGGTTCTAACCTGTTGCCTAGATTTATGCAGCGGACTGCCTTTCTCCCAAAGTGATAAACCGG…AGGTTGGTTTCACT; site = the 11-nt donor. An outline of the steps: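 In Escherichia coli, a pool of donor and donor-binding-loop pairs, each with a 12-nt UMI, was tested for the IS621 bridge recombinase. Plating was on IPTG (0.07 mM) plus kanamycin, or without selection, in two replicates. Recombinant UMIs were amplified by PCR across the donor–target junction and sequenced, and counts were reported as log10(CPM+1) after averaging and control-derived scaling.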
On to “CGATCATCATGGACCGGTTTTCCCGGTAATCCGTATTTGCT (site CGATCATCTAG)”, for which the “recombinant UMI read abundance (log10)” value stood at 1.82.

Turning to “CGATCATCATGGACCGGTTTTCCCGGTAATCCGTATTTGCT (site CGATCATCTAT)”, the “recombinant UMI read abundance (log10)” value is 0.

With “CGATCATCATGGACCGGTTTTCCCGGTAATCCGTATTTGCT (site CGATCATCTCC)”, the “recombinant UMI read abundance (log10)” value amounted to 0.00455.

“CGATCATCATGGACCGGTTTTCCCGGTAATCCGTATTTGCT (site CGATCATCTCG)”: the “recombinant UMI read abundance (log10)” value was 0.

In the case of “CGATCATCATGGACCGGTTTTCCCGGTAATCCGTATTTGCT (site CGATCATCTGG)”, the “recombinant UMI read abundance (log10)” value is 0.

Take “CGATCATCATGGACCGGTTTTCCCGGTAATCCGTATTTGCT (site CGATCATCTGT)”: the “recombinant UMI read abundance (log10)” value is 0.

As to “CGATCATCATGGACCGGTTTTCCCGGTAATCCGTATTTGCT (site CGATCATCTTA)”, the “recombinant UMI read abundance (log10)” value stood at 0.

In the case of “CGATCATCATGGACCGGTTTTCCCGGTAATCCGTATTTGCT (site CGATCATCTTG)”, the “recombinant UMI read abundance (log10)” value is 0.

For “CGATCATCATGGACCGGTTTTCCCGGTAATCCGTATTTGCT (site CGATCCACTAG)”, the “recombinant UMI read abundance (log10)” value came to 0.00991.

Turning to “CGATCATCATGGACCGGTTTTCCCGGTAATCCGTATTTGCT (site CGATCCTCTAC)”, the “recombinant UMI read abundance (log10)” value is 0.00344.

As for “CGATCATCATGGACCGGTTTTCCCGGTAATCCGTATTTGCT (site CGATCCTCTAG)”, the “recombinant UMI read abundance (log10)” value was 0.

Take “CGATCATCATGGACCGGTTTTCCCGGTAATCCGTATTTGCT (site CGATCCTCTCG)”: the “recombinant UMI read abundance (log10)” value stood at 0.00562.

As for “CGATCATCATGGACCGGTTTTCCCGGTAATCCGTATTTGCT (site CGATCGCCTAG)”, the “recombinant UMI read abundance (log10)” value stood at 0.00385.

Take “CGATCATCATGGACCGGTTTTCCCGGTAATCCGTATTTGCT (site CGATCGTCTAG)”: the “recombinant UMI read abundance (log10)” value came out at 0.

As to “CGATCATCATGGACCGGTTTTCCCGGTAATCCGTATTTGCT (site CGATCGTCTAT)”, the “recombinant UMI read abundance (log10)” value was determined as 0.

Regarding “CGATCATCATGGACCGGTTTTCCCGGTAATCCGTATTTGCT (site CGATCGTCTGG)”, the “recombinant UMI read abundance (log10)” value is 0.

As for “CGATCATCATGGACCGGTTTTCCCGGTAATCCGTATTTGCT (site CGATCTGCTAG)”, the “recombinant UMI read abundance (log10)” value amounted to 0.

With “CGATCATCATGGACCGGTTTTCCCGGTAATCCGTATTTGCT (site CGATCTTCTAA)”, the “recombinant UMI read abundance (log10)” value was determined as 0.

Take “CGATCATCATGGACCGGTTTTCCCGGTAATCCGTATTTGCT (site CGATCTTCTAG)”: the “recombinant UMI read abundance (log10)” value amounted to 0.

Take “CGATCATCATGGACCGGTTTTCCCGGTAATCCGTATTTGCT (site CGATCTTCTTG)”: the “recombinant UMI read abundance (log10)” value is 0.

With “CGATCATCATGGACCGGTTTTCCCGGTAATCCGTATTTGCT (site CGATGACCTAG)”, the “recombinant UMI read abundance (log10)” value was 0.

Turning to “CGATCATCATGGACCGGTTTTCCCGGTAATCCGTATTTGCT (site CGATGATCTAG)”, the “recombinant UMI read abundance (log10)” value is 0.

In the case of “CGATCATCATGGACCGGTTTTCCCGGTAATCCGTATTTGCT (site CGATGATCTAT)”, the “recombinant UMI read abundance (log10)” value was found to be 0.00469.

As to “CGATCATCATGGACCGGTTTTCCCGGTAATCCGTATTTGCT (site CGATGATCTGG)”, the “recombinant UMI read abundance (log10)” value is 0.

“CGATCATCATGGACCGGTTTTCCCGGTAATCCGTATTTGCT (site CGATGGTCTAG)”: the “recombinant UMI read abundance (log10)” value was found to be 0.

For “CGATCATCATGGACCGGTTTTCCCGGTAATCCGTATTTGCT (site CGATTAGCTAG)”, the “recombinant UMI read abundance (log10)” value was 0.0161.

For “CGATCATCATGGACCGGTTTTCCCGGTAATCCGTATTTGCT (site CGATTATCTAA)”, the “recombinant UMI read abundance (log10)” value is 0.

As to “CGATCATCATGGACCGGTTTTCCCGGTAATCCGTATTTGCT (site CGATTATCTAG)”, the “recombinant UMI read abundance (log10)” value is 0.

“CGATCATCATGGACCGGTTTTCCCGGTAATCCGTATTTGCT (site CGATTATCTTG)”: the “recombinant UMI read abundance (log10)” value worked out at 0.
